Entries after “also recorded” stand apart in the source; their conditions may differ.
Assays:
Format in all cases: cell-based, human
NHIP = NHIP transcript levels by RT-qPCR in LUHMES cells after hypoxia mimetic; conditions: differentiated LUHMES cells
Description: (§1) LUHMES cells (ATCC, Manassas, VA, USA, CRL-2927) were seeded on fibronectin coated plates (Thermo Fisher Scientific, Waltham, MA, USA, CWP001, 354402). Undifferentiated cells were maintained in proliferation medium: Advanced DMEM/F12 (Invitrogen, Carlsbad, CA, USA), supplemented with N2 supplement (Invitrogen, Carlsbad, CA, USA), Penicillin-streptomycin-glutamine (Thermo Fisher Scientific, Waltham, MA, USA), and 40 ng/ml recombinant bFGF (Invitrogen, Carlsbad, CA, USA). To generate differentiated LUHMES, cells were switched to differentiation media for five days. Differentiation media: Advanced DMEM/F12, supplemented with N2 supplement, Penicillin-streptomycin-glutamine, 1 mM dbcAMP (MilliporeSigma, Burlington, MA, USA), 1 μg/ml tetracycline (Neta Scientific, Hainesport, NJ, USA), and 2 ng/ml recombinant human GDNF (Thermo Fisher Scientific, Waltham, MA, USA). […] For RNA quantification, cells were maintained in 6-well plates. […]
Total RNA was isolated from HEK293T cells transiently transfected with NHIP-eGFP or negative control NEG-eGFP using AllPrep DNA/RNA/Protein mini kit (Qiagen, Hilden, Germany). […] Fold changes of transcript levels were measured using the Fluidigm Real-Time PCR Analysis software calculated fold change of gene expression as the delta delta CT normalized to GAPDH (Fluidigm, San Francisco, CA, USA).

LUHMES cells [1] = experiment: Reactive oxygen species (ROS-Glo H2O2 assay) in LUHMES cells after hypoxia mimetic; conditions: differentiated LUHMES neurons compared with undifferentiated; 100 nM CoCl2 for 24 hours
Description: as §1, with “days.” for “days. Differentiation media: Advanced DMEM/F12, supplemented with N2 supplement, Penicillin-streptomycin-glutamine, 1 mM dbcAMP (MilliporeSigma, Burlington, MA, USA), 1 μg/ml tetracycline (Neta Scientific, Hainesport, NJ, USA), and 2 ng/ml recombinant human GDNF (Thermo Fisher Scientific, Waltham, MA, USA).”
(§2) All cells were maintained at 37° C. containing […] and 5% CO2. […] Cell numbers were measured using disposable countess chamber slide on Countess II FL automated cell counter (Thermo Fisher Scientific, Waltham, MA, USA) under the default steps with mixing 10 μl of samples with 10 μl of trypan blue. CellTiter Blue reagent was used for measured cell viability using […] based on manufacturer instruction (Promega, Madison, WI, USA). H2O2 production represented relative reactive oxygen species (ROS) level was measured with the ROS-Glo H2O2 assay system using 50 nM with the default setting with level measured by luminometer (Promega, Madison, WI, USA).

LUHMES cells [2] = experiment: Cell viability (CellTiter Blue) of LUHMES cells after hypoxia mimetic; conditions: differentiated LUHMES neurons compared with undifferentiated; CoCl2 for 24 hours
Description: as §1, with “days.” for “days. Differentiation media: Advanced DMEM/F12, supplemented with N2 supplement, Penicillin-streptomycin-glutamine, 1 mM dbcAMP (MilliporeSigma, Burlington, MA, USA), 1 μg/ml tetracycline (Neta Scientific, Hainesport, NJ, USA), and 2 ng/ml recombinant human GDNF (Thermo Fisher Scientific, Waltham, MA, USA).”
as §2

## [Cl][Co][Cl] [CoCl2, cobalt chloride]
NHIP; 100 nM CoCl2 for 24 hours vs mock, normalized to GAPDH
  NHIP transcript levels: significantly increased
NHIP; 48 hours of recovery (Day 8) after 24 hours of CoCl2
  NHIP transcript levels after removal of hypoxia mimetic: returned to untreated levels; also recorded: returned to mock control baseline levels
LUHMES cells [1]
  reactive oxygen species (ROS) levels: increase
LUHMES cells [2]
  cell viability: significant decrease

Reference: patent US20250137050A1, “METHODS AND COMPOSITIONS FOR DETERMINING RISK OF AUTISM SPECTRUM DISORDERS” (The Regents of the University of California, priority 2021, published 2025)
